{"source": "patent EP4678627A1", "about": "“NOVEL FERROPTOSIS INHIBITORS” (Universiteit Antwerpen, priority 2024, dated 2026)", "assay": "Human liver microsomal stability", "details": "Corning ultra pool human liver microsome (HLM), NADPH, 1 µM, 0.5 mg/ml protein"}
{"smiles": "COc1ccc2c(c1)[C@]13CCCC[C@@H]1[C@H](C2)N(C)CC3", "note": "[Dextromethorphan]", "values": [{"measurement": "Microsomal stability in human t1/2", "value": 40.0, "unit": "min"}]}
